This note sets out measurements from US6737383B1, “Herbicidal oxadiazolidines” (priority 1999, dated 2004).

In one assay the test system is crabgrass. The experiment in a line: Test A crabgrass. Type of assay: in vivo, Digitaria spp. To be noted: 0 to 10 scale where 0 is no effect and 10 is complete control. The method in brief:
(§1)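 Ratings came from visual comparison with untreated plants about eleven days after treatment, scored 0 for no effect through 10 for complete control. Both soil-drench preemergence and runoff-spray postemergence applications were made at the same time.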

Another assay deals with morningglory. The experiment in a line: Test A morningglory. Type of assay: in vivo, Ipomoea spp. To be noted: 0 to 10 scale where 0 is no effect and 10 is complete control. The method in brief:
as §1

The subject of a further assay is barnyardgrass. Put plainly: Test A barnyardgrass. It is filed as in vivo, Echinochloa crus-galli. The conditions noted are these: 0 to 10 scale where 0 is no effect and 10 is complete control. The protocol: Seeds of barnyardgrass (Echinochloa crus-galli), crabgrass (Digitaria spp.), morningglory (Ipomoea spp.), and velvetleaf (Abutilon theophrasti) were planted into a sandy loam soil and treated preemergence by soil drench with test chemicals formulated in a non-phytotoxic solvent mixture which includes a surfactant At the same time, these crop and weed species were also treated postemergence sprayed to runoff, with test chemicals formulated in the same manner.
Plants ranged in height from two to eighteen cm and were in the one to two leaf stage for the postemergence treatment. Treated plants and untreated controls were maintained in a greenhouse for approximately eleven days, after which all treated plants were compared to untreated controls and visually evaluated for injury. Plant response ratings, summarized in Table A, are based on a 0 to 10 scale where 0 is no effect and 10 is complete control.

For another assay, the system named is large crabgrass. The experiment in a line: Test C postemergence large crabgrass. It is filed as in vivo, Digitaria sanguinalis. To be noted: 0 to 100 scale, 0 no effect, 100 complete control. The protocol:
(§2) Compounds evaluated in this test were formulated in a non-phytotoxic solvent mixture which included a surfactant and applied to plants that were grown for various periods of time before treatment (postemergence application). A mixture of sandy loam soil and greenhouse potting mix in a 60:40 ratio was used for the postemergence test.
(§3) Plantings of these crops and weed species were adjusted to produce plants of appropriate size for the postemergence test. All plant species were grown using normal greenhouse practices. Crop and weed species include arrowleaf sida (Sida rhombifolia), barnyardgrass (Echinochloa crus-galli), cocklebur (Xanthium strumarium), common ragweed (Ambrosia elatior), corn (Zea mays), cotton (Gossypium hirsutum), eastern black nightshade (Solanum ptycanthum), fall panicum (Panicum dichotomiflorum), field bindweed (Convolvulus arvensis), giant foxtail (Setaria faberii), hairy beggarticks (Bidens pilosa), ivyleaf morningglory (Ipomoea hederacea), johnsongrass (Sorghum halepense), ladysthumb smartweed (Polygonum persicaria), lambsquarters (Chenopodium album), large crabgrass (Digitaria sanguinalis), purple nutsedge (Cyperus rotundus), redroot pigweed (Amaranthus retroflexus), soybean (Glycine max), surinam grass (Brachiaria decumbens), velvetleaf (Abutilon theophrasti) and wild poinsettia (Euphorbia heterophylla).
(§4) Treated plants and untreated controls were maintained in a greenhouse for approximately 14, to 21 days, after which all treated plants were compared to untreated controls and visually evaluated. Plant response ratings, summarized in Table C, were based upon a 0 to 100 scale where 0 was no effect and 100 was complete control. A dash response (−) means no test result.

A further assay deals with soybean. Put plainly: Test C postemergence soybean. Type of assay: in vivo, Glycine max. To be noted: 0 to 100 scale, 0 no effect, 100 complete control. The protocol: as §2, §3, §4
For another assay, the system named is arrowleaf sida. Put plainly: Test C postemergence arrowleaf sida. It is filed as in vivo, Sida rhombifolia. To be noted: 0 to 100 scale, 0 no effect, 100 complete control. The protocol:
as §2, §3, §4

Another assay relates to eastern black nightshade. Put plainly: Test C postemergence eastern black nightshade. It is filed as in vivo, Solanum ptycanthum. To be noted: 0 to 100 scale, 0 no effect, 100 complete control. The method in brief: (§5)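 In this greenhouse assay, treated and untreated plants were kept for approximately 14 to 21 days following postemergence application, then rated by eye on a scale from 0 (no effect) to 100 (complete control).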

In another assay the test system is cocklebur. The experiment in a line: Test C postemergence cocklebur. It is filed as in vivo, Xanthium strumarium. To be noted: 0 to 100 scale, 0 no effect, 100 complete control. The method in brief:
as §5

In a further assay the test system is johnsongrass. Put plainly: Test C postemergence johnsongrass. Type of assay: in vivo, Sorghum halepense. The conditions noted are these: 0 to 100 scale, 0 no effect, 100 complete control. The protocol:
as §2, §3, §4

A further assay deals with Green foxtail. The experiment in a line: Test D green foxtail. Type of assay: in vivo. The conditions noted are these: Rate 64 g/ha, Postemergence; 0 to 100 scale, 0 no injury, 100 complete control.
The subject of the next assay is guineagrass. Put plainly: Test D guineagrass. Type of assay: in vivo, Panicum maximum. To be noted: Rate 64 g/ha, Postemergence; 0 to 100 scale, 0 no injury, 100 complete control.
The test system of a further assay is goosegrass. The experiment in a line: Test D goosegrass. To be noted: Rate 64 g/ha, Postemergence; 0 to 100 scale, 0 no injury, 100 complete control. Type of assay: in vivo, Eleusine indica.
The test system of a further assay is common pursiane. The experiment in a line: Test D common purslane. It is filed as in vivo, Portulaca oleracea. The conditions noted are these: Rate 64 g/ha, Postemergence; 0 to 100 scale, 0 no injury, 100 complete control.
Another assay relates to itchgrass. The experiment in a line: Test D itchgrass. It is filed as in vivo, Rottboellia exaltata. To be noted: Rate 64 g/ha, Postemergence; 0 to 100 scale, 0 no injury, 100 complete control.
Another assay deals with common groundsel. Put plainly: Test D common groundsel. It is filed as in vivo, Senecio vulgaris. The conditions noted are these: Rate 64 g/ha, Postemergence; 0 to 100 scale, 0 no injury, 100 complete control.
A further assay has as its system common ragweed. Put plainly: Test D common ragweed. To be noted: Rate 64 g/ha, Postemergence; 0 to 100 scale, 0 no injury, 100 complete control. Type of assay: in vivo, Ambrosia elatior.
In a further assay the test system is dallisgrass. Put plainly: Test D dallisgrass. Type of assay: in vivo, Paspalum dilatatum. To be noted: Rate 64 g/ha, Postemergence; 0 to 100 scale, 0 no injury, 100 complete control.
The test system of another assay is sandbur. The experiment in a line: Test D sandbur. It is filed as in vivo, Cenchrus echinatus. The conditions noted are these: Rate 64 g/ha, Postemergence; 0 to 100 scale, 0 no injury, 100 complete control.

As to `CCN(CC)C(=O)n1oc(=O)n(-c2ccc(OC)cc2)c1=O` [Compound 1], the “Plant response rating, Crabgrass” value is on record as 5 in the assay with crabgrass (Postemergence, Rate 1000 g/ha) and 9 with crabgrass (Pre-emergence, Rate 2000 g/ha). The “Plant response rating, Morningglory” value with morningglory (Postemergence, Rate 1000 g/ha) was found to be 0; in the assay with morningglory (Pre-emergence, Rate 2000 g/ha), 0. Moreover, the “Plant response rating, Barnyardgrass” value in the assay with barnyardgrass (Postemergence, Rate 1000 g/ha) amounted to 8; with barnyardgrass (Pre-emergence, Rate 2000 g/ha), 9.

Turning to `Cc1ccccc1-n1c(=O)on(C(=O)N(C2=CCOCC2)C(C)C)c1=O` [Compound 10], the “Plant response rating, Crabgrass” value in the assay with crabgrass (Postemergence, Rate 1000 g/ha) was 8; in the assay on crabgrass (Pre-emergence, Rate 2000 g/ha), 9. The “Plant response rating, Morningglory” value worked out at 0 in the assay on morningglory (Postemergence, Rate 1000 g/ha) and 1 in the assay on morningglory (Pre-emergence, Rate 2000 g/ha). For the same compound, the “Plant response rating, Barnyardgrass” value with barnyardgrass (Postemergence, Rate 1000 g/ha) is 9; with barnyardgrass (Pre-emergence, Rate 2000 g/ha), 10.

With `CC(C)Oc1cc(-n2c(=O)on(C(=O)N(c3ccc(F)cc3)C(C)C)c2=O)c(Cl)cc1Cl` [Compound 43], the “Plant response rating, Crabgrass” value is 0 in the assay on crabgrass (Postemergence, Rate 1000 g/ha) and 1 with crabgrass (Pre-emergence, Rate 2000 g/ha). Moreover, the “Plant response rating, Morningglory” value in the assay on morningglory (Postemergence, Rate 1000 g/ha) is listed as 0; in the assay on morningglory (Pre-emergence, Rate 2000 g/ha), 0. The “Plant response rating, Barnyardgrass” value with barnyardgrass (Postemergence, Rate 1000 g/ha) amounted to 0; in the assay on barnyardgrass (Pre-emergence, Rate 2000 g/ha), 0.

Consider `CC(C)N(C(=O)n1oc(=O)n(Cc2cccs2)c1=O)c1ccc(F)cc1` [Compound 80], for which the “Plant response rating, Large crabgrass” value came to 0 with large crabgrass (Rate 140 g/ha), 0 in the assay with large crabgrass (Rate 280 g/ha), 10 in the assay with large crabgrass (Rate 560 g/ha) and 10 in the assay on large crabgrass (Rate 1120 g/ha). Besides, the “Plant response rating, Soybean” value in the assay on soybean (Rate 140 g/ha) is reported as 5; in the assay with soybean (Rate 280 g/ha), 20; with soybean (Rate 560 g/ha), 60. The “Plant response rating Arrowleaf sida” value in the assay on arrowleaf sida (Rate 140 g/ha) was 0; in the assay with arrowleaf sida (Rate 280 g/ha) it was 5; in the assay on arrowleaf sida (Rate 1120 g/ha), 30. Moreover, the “Plant response rating E. blacknightsh” value amounted to 0 in the assay with eastern black nightshade (Rate 140 g/ha), 5 in the assay with eastern black nightshade (Rate 280 g/ha), 50 with eastern black nightshade (Rate 560 g/ha) and 60 in the assay on eastern black nightshade (Rate 1120 g/ha). The “Plant response rating, Cocklebur” value was 5 in the assay with cocklebur (Rate 140 g/ha), 10 in the assay with cocklebur (Rate 280 g/ha), 50 with cocklebur (Rate 560 g/ha) and 50 in the assay with cocklebur (Rate 1120 g/ha). Moreover, the “Plant response rating, Johnsongrass” value in the assay with johnsongrass (Rate 140 g/ha), in the assay with johnsongrass (Rate 280 g/ha), in the assay with johnsongrass (Rate 560 g/ha) and in the assay with johnsongrass (Rate 1120 g/ha) was 0 throughout.

Turning to `C=CCn1c(=O)on(C(=O)N(c2ccccc2)C(C)C)c1=O` [Compound 93], the “Plant response rating, Large crabgrass” value with large crabgrass (Rate 140 g/ha) was determined as 0; in the assay with large crabgrass (Rate 280 g/ha) it was 30; in the assay with large crabgrass (Rate 560 g/ha), 50; in the assay with large crabgrass (Rate 1120 g/ha), 95. Also, the “Plant response rating, Soybean” value with soybean (Rate 140 g/ha) stood at 40; in the assay on soybean (Rate 280 g/ha) it was 60; in the assay with soybean (Rate 560 g/ha), 80; with soybean (Rate 1120 g/ha), 85. The “Plant response rating Arrowleaf sida” value was 10 with arrowleaf sida (Rate 280 g/ha), 60 in the assay on arrowleaf sida (Rate 560 g/ha) and 60 in the assay on arrowleaf sida (Rate 1120 g/ha). Further, the figures for the “Plant response rating E. blacknightsh” value in the assay on eastern black nightshade (Rate 140 g/ha), in the assay on eastern black nightshade (Rate 280 g/ha) and in the assay on eastern black nightshade (Rate 1120 g/ha) were 10, 40 and 85, respectively. Moreover, the “Plant response rating, Cocklebur” value in the assay on cocklebur (Rate 140 g/ha) was determined as 0; in the assay on cocklebur (Rate 280 g/ha), 35; with cocklebur (Rate 560 g/ha), 40. For the same compound, the “Plant response rating, Johnsongrass” value in the assay on johnsongrass (Rate 140 g/ha) turned out to be 0; in the assay on johnsongrass (Rate 280 g/ha), 5; in the assay with johnsongrass (Rate 560 g/ha) it was 85; in the assay with johnsongrass (Rate 1120 g/ha) it was 90.

As to `CC(C)N(C(=O)n1oc(=O)n(C2CCCCC2C(F)(F)F)c1=O)c1ccc(F)cc1` (stereo not shown) [Compound 99], the “Plant response rating, Crabgrass” value is recorded as 7 in the assay on crabgrass (Postemergence, Rate 1000 g/ha) and 10 with crabgrass (Pre-emergence, Rate 2000 g/ha). Also, the “Plant response rating, Morningglory” value with morningglory (Postemergence, Rate 1000 g/ha) is recorded as 2; in the assay with morningglory (Pre-emergence, Rate 2000 g/ha) it was 2. In addition, the “Plant response rating, Barnyardgrass” value came out at 7 in the assay on barnyardgrass (Postemergence, Rate 1000 g/ha) and 9 with barnyardgrass (Pre-emergence, Rate 2000 g/ha).

Take `CC(C)N(C(=O)n1oc(=O)n(Cc2cccs2)c1=O)c1ccccc1` [Compound 103]: the “Plant response rating, Large crabgrass” value in the assay on large crabgrass (Rate 140 g/ha) is 0; with large crabgrass (Rate 280 g/ha) it was 0; in the assay on large crabgrass (Rate 560 g/ha) it was 0; in the assay on large crabgrass (Rate 1120 g/ha), 10. Moreover, the “Plant response rating, Soybean” value in the assay with soybean (Rate 140 g/ha) was 30; with soybean (Rate 280 g/ha), 30; with soybean (Rate 560 g/ha), 35; in the assay on soybean (Rate 1120 g/ha), 35. For the same compound, the “Plant response rating Arrowleaf sida” value in the assay on arrowleaf sida (Rate 140 g/ha), in the assay on arrowleaf sida (Rate 280 g/ha) and in the assay on arrowleaf sida (Rate 560 g/ha) was 0 each time. For the same compound, the “Plant response rating E. blacknightsh” value in the assay on eastern black nightshade (Rate 140 g/ha), in the assay with eastern black nightshade (Rate 280 g/ha), in the assay on eastern black nightshade (Rate 560 g/ha) and in the assay with eastern black nightshade (Rate 1120 g/ha) was 0 throughout. The “Plant response rating, Cocklebur” value with cocklebur (Rate 140 g/ha), with cocklebur (Rate 280 g/ha), with cocklebur (Rate 560 g/ha) and in the assay with cocklebur (Rate 1120 g/ha) was 0 each time. Besides, the “Plant response rating, Johnsongrass” value in the assay on johnsongrass (Rate 140 g/ha), in the assay on johnsongrass (Rate 280 g/ha), with johnsongrass (Rate 560 g/ha) and in the assay with johnsongrass (Rate 1120 g/ha) was 0 throughout.

For `CC(C)Cn1c(=O)on(C(=O)N(c2ccc(F)cc2)C(C)C)c1=O` [Compound 169], in the assay with Green foxtail, the “Green foxtail plant response rating” value was determined as 100. In the assay with guineagrass, the “Guineagrass plant response rating” value was 0 and the “Plant response rating, Guineagrass” value turned out to be 100. The “Plant response rating, Goosegrass” value with goosegrass is on record as 100. For the same compound, the “Plant response rating, C. purslane” value in the assay on common pursiane is 0. Further, the “Plant response rating, Itchgrass” value with itchgrass stood at 0. Further, the “Plant response rating, Com. groundsel” value in the assay with common groundsel is 65. In addition, the “Plant response rating, C. ragweed” value in the assay on common ragweed stood at 0. Moreover, the “Plant response rating, Dallisgrass” value in the assay with dallisgrass was found to be 90. In the assay with sandbur, the “Sandbur plant response rating” value came out at 40.
